Experimental findings from patent US11091476B2, “Protein kinase inhibitors, preparation method and medical use thereof” (Gan & Lee Pharmaceuticals, priority 2015, dated 2021) are described below.

Molecules are shown by their SMILES.

The test system of this assay is U87-luc orthotopic brain xenograft. The assay can be described thus: Pharmacodynamic study in U87-luc orthotopic brain xenograft model, median survival. Particulars: for Medium survival: survival time range in brackets. The format is in vivo, BALB/c nude mice. The text has this:
Pharmacodynamic study of the compound 17 of this disclosure and the combination of compound 17 of the disclosure and temozolomide in a U87-luc orthotopic brain xenograft model
Adult female BALB/c nude mice were used as test animals. A U87-luc orthotopic brain xenograft model was used to study the effect of representative compound 17 of this disclosure on the median survival of female BALB/c nude mice after intragastric administration.
Healthy adult female BALB/c nude mice, 8 mice/group, 6-8 weeks old, weighing 18-22 g, purchased from Shanghai SIPPR-BK Laboratory Animal Co., Ltd., Animal Production License No: 2008001658261; 2008001658263. • 7.2.3 Preparation of the test compounds
An appropriate amount of compound 17 was weighed, and added with 0.1% hydroxyethyl cellulose/0.5% TWEEN®80 as vehicle to 0.3125 mg/ml;
An appropriate amount of Temozolomide sample was weighed, and added with 0.1% CMC-Na+0.25% TWEEN®80 as vehicle to 0.3 mg/ml.
Adult female BALB/c nude mice were anesthetized by intraperitoneal injection of sodium pentobarbital at a dose of 80 mg/kg. To relieve pain, animals were injected subcutaneously with buprenorphine at the time points 30 minutes before operation and 6 hours after operation at a dose of 0.1 mg/kg. Animals were observed after anesthesia until all animals had awakened.
The anesthetized animals were properly fixed, the animals' head skin was sterilized with 70% ethanol, and an approximately 10 mm long incision was made on the right side of the midline from the forehead to the ear line. 3×10^5 U87-luc cells (3 μl, mixture of PBS and Matrigel at a ratio of 4:1) were inoculated at the right frontal lobe that is 2 mm away from the right side of the bregma and is 1 mm away from the front side of the coronal suture in each animal. The incision was sutured with a No. 6 suture, and sterilized with polyvinylpyrrolidone. Animals are kept warm until anabiosis. Six days after tumor cell transplantation, tumor animals were grouped by stratified randomization based on […] signal intensity values, and the average bioluminescence reached 2.812E+07 photons/sec when the groups were administered in groups. Different animal groups were administered at different doses for a total of 35 days.

For `CC1=Nc2c(F)cc(-c3nc(Nc4ccc(C5CCN(C)CC5)cn4)ncc3F)cc2C12CCCC2` [Example 17, 5-Fluoro-4-(7′-fluoro-2′-methylspiro[cyclopentane-1,3′-indol]-5′-yl)-N-(5-(1-methylpiperidin-4-yl)pyridin-2-yl)pyrimidine-2-amino], the Medium survival (3.125 mg/kg QD intragastric) is reported as 38.5(26-59) days; the Medium survival (6.25 mg/kg QD intragastric) is reported as 43.5(31-48) days; the Medium survival (12.5 mg/kg QD intragastric) was 44.5(31-114) days; the Medium survival (25 mg/kg QD intragastric) was 61(41-76) days; the Medium survival (50 mg/kg QD intragastric) is recorded as 78.5(63->114) days. Besides, for the setting “dose-dependent”, the “Effect on median survival, in words” value is “significantly prolong the median survival”.
